Experimental data taken from article PMC7083851, “Extended pharmacodynamic responses observed upon PROTAC-mediated degradation of RIPK2” (Communications Biology, 2020).
Several values for one entry are separate records, joined by “and”; a condition that tells them apart may be missing. Equal entries are not always repeated.

Key:
[1] = test system: L18-MDP-stimulated TNFα release; assay: TNFα after ex vivo L18-MDP stimulation of blood from dosed rats; assay type: in vivo, rat; parameters: key to TNFα after ex vivo L18-MDP stimulation: % of pre-dose or vehicle sample; conditions: for TNFα after ex vivo L18-MDP stimulation: fig 5b; for TNFa: fig 5e, individual rats 6-10, time 0 = 100; for TNFα inhibition (ex vivo L18-MDP): 0.05 mg/kg/day QD SC
Method: (§1) Male CD or Wistar Han rats (7–9 weeks old, Charles River UK Ltd.) were randomly allocated to treatment groups upon arrival. Female CD rats (7–8 weeks old on arrival, Charles River Ltd.) were placed into groups using a randomization schedule based on body weight prior to the study start. All animals were acclimatized for a minimum of one week prior to the experiment commencing.
Subcutaneous PROTAC solution formulations were prepared on the day of dosing as outlined below and filtered through a 0.22 µm Millex PVDF filter (Millipore) prior to PROTAC administration. PROTAC 4 was dissolved in saline with the pH adjusted to 5.0 with sodium hydroxide (1 M).
(§2) Ex vivo stimulation of rat blood with L18-MDP for PD: PPD blood samples taken prior to PROTAC administration or at fixed timepoints post PROTAC administration through the course of the study, were treated ex vivo with 100 ng/mL L18-MDP (Invivogen) or vehicle (0.1% DMSO) and incubated for 4 h. Following centrifugation, plasma was collected for cytokines analysis as detailed in cytokines assay section. Additionally, RIPK2 levels were determined in PBMCs isolated from blood and where collected, in sampled colon tissue as described in the text.
Cytokine measurement assay: Cytokine levels were measured in rat plasma or rat PBMCs cell culture supernatants using rat V-Plex TNFα, in human plasma or human PBMCs cell culture supernatants with either TNFα tissue culture or 7-plex kit. Rat serum and tissues samples from the in vivo L18-MDP acute inflammation model were analyzed using the rat TNFα, Il-6 and IL-8 U-Plex kits. All kits provided by Meso Scale Discovery (MSD). Levels of cytokines spontaneously released from human colon biopsies cell culture supernatants were measured using Human IL-1 beta/IL-1F2 DuoSet ELISA (Bio-techne), Human IL-6 ELISA (Immunotools) and Human TNF-alpha DuoSet ELISA (Bio-techne). All samples were processed accordingly to the manufacturer’s instructions. The MSD plates were analyzed using the MSD sector imager 6000 plate reader and cytokines concentration (pg/ml) was obtained by using the MSD DISCOVERY WORKBENCH software version 4.0.12.1
(§3) Statistics and reproducibility: All data were represented as percentage of the control sample: DMSO treated cells for the in vitro assays and the pre-dose or vehicle sample for the in vivo experiments.

RIPK2 = assay: In vivo RIPK2 degradation in rat (PBMCs isolated from blood, Western blot); conditions: for RIPK2: fig 5e, individual rats 6-10, time 0 = 100; for RIPK2 (time 0 = 100): rats 1-4, fig 5c
Method: as §1, with “Rat PK/PD studies: On arrival, all rats were housed in a plastic solid bottom cage in groups of 2–3 with access to food and water ad libitum and under a 12 h light–dark cycle. Male” for “Male”
Subcutaneous PROTAC solution formulations were prepared on the day of dosing as outlined below and filtered through a 0.22 µm Millex PVDF filter (Millipore) prior to PROTAC administration. PROTAC 4 was dissolved in saline with the pH adjusted to 5.0 with sodium hydroxide (1 M). […].
as §2
Blood was mixed with optiPREP (Sigma) and following centrifugation at 1300 × g the PBMCs layer was collected. For in vivo studies, RIPK2 levels were determined immediately via immunoblotting, whereas for in vitro studies PBMCs were treated as detailed in the in vitro treatment section.
as §3
For in vivo studies, RIPK2:tubulin ratios and cytokine levels from each individual experiment were analysed either using a One-way ANOVA with Dunnet’s post-test or a two way ANOVA using GraphPad Prism 5.0.4 to determine statistical significance with 95% confidence levels.

[2] = Blood concentrations after subcutaneous dosing in rat PK/PD studies; assay type: in vivo; conditions: rat, […] Q3D SC
Method: Female CD rats (7–8 weeks old on arrival, Charles River Ltd.) were placed into groups using a randomization schedule based on body weight prior to the study start. All animals were acclimatized for a minimum of one week prior to the experiment commencing. […] PROTAC 4 was dissolved in saline with the pH adjusted to 5.0 with sodium hydroxide (1 M).

## CN[C@@H](C)C(=O)N[C@H](C(=O)N1C[C@@H](NC(=O)c2cnc(N3CCN(CCCOc4cc5ncnc(Nc6n[nH]c(C)c6C)c5cc4S(=O)(=O)C(C)(C)C)CC3)cn2)C[C@H]1C(=O)Nc1c(F)cccc1F)C(C)(C)C [PROTAC 6]
[1]; 0.005 mg/kg, time 6 h, rats 6-10
  TNFα after ex vivo L18-MDP stimulation: 103.74 and 107.75 and 89.01 and 67.06 and 122.94
[1]; 0.005 mg/kg, time 96 h, rats 6-10
  TNFα after ex vivo L18-MDP stimulation: 59.51 and 62.83 and 97.91 and 70.36 and 61.76
[1]; 0.05 mg/kg, time 48 h, rats 11-15
  TNFα after ex vivo L18-MDP stimulation: 25.93 and 24.59 and 27.99 and 42.15 and 37.98
[1]; time 24 h
  TNFa: 0.86 and 0.61 and 0.92 and 2.90 and 3.38
[1]; time 72 h
  TNFa: 13.57 and 6.85 and 8.80 and 22.86
[1]; rat, 0.05 mg/kg Q3D SC
  cumulative PD effect, in words: failed to show this cumulative PD effect
[1]; rat, 6 h post-dose
  TNFα inhibition (ex vivo L18-MDP): ~ 60%
[1]; rat, 24 h post-dose
  TNFα inhibition (ex vivo L18-MDP): ~ 60%
[1]; rat, 54 h (6 h after third dose)
  TNFα inhibition (ex vivo L18-MDP): > 90%
[1]; rat, 0.5 mg/kg/day QD SC, 24 h
  inhibition of TNFα release (ex vivo L18-MDP): > 90%
[1]; rat, single 0.005 mg/kg SC
  effect on TNFα levels, in words: no significant effect
[1]; rat, single 0.05 mg/kg SC, first 48 h
  inhibition of TNFα release upon ex vivo L18-MDP challenge: > 60%
[1]; rat, single 0.5 mg/kg SC, over the duration of the study (5 days)
  inhibition of TNFα levels upon ex vivo whole blood L18-MDP challenge: > 70%
[1]; time 72 h, rats 11-15, fig 5d
  TNFa (time 0 = 100): 91.60 and 114.81 and 76.37 and 83.72
RIPK2; 0.005 mg/kg, equals the mean of the four other rats at 24 h, fig 5a
  RIPK2 level (time 0 = 100), unlabelled cell under rat 8: 92.1904
RIPK2; 0.005 mg/kg, time 24 h, rats 6-10, fig 5a
  RIPK2 level (time 0 = 100): 71.58 and 92.75 and 127.25 and 77.18
RIPK2; 0.005 mg/kg, time 48 h, rats 6-10, fig 5a
  RIPK2 level (time 0 = 100): 107.66 and 189.11 and 139.36 and 104.71 and 114.34
RIPK2; 0.05 mg/kg, time 6 h, rats 11-15, fig 5a
  RIPK2 level (time 0 = 100): 60.71 and 118.09 and 89.04 and 78.70 and 85.87
RIPK2; 0.05 mg/kg, time 24 h, rats 11-15, fig 5a
  RIPK2 level (time 0 = 100): 70.75 and 59.91 and 86.01 and 67.12 and 70.61
RIPK2; 0.5 mg/kg, time 72 h, rats 16-20, fig 5a
  RIPK2 level (time 0 = 100): 25.93 and 26.14 and 14.54 and 23.73 and 19.84
RIPK2; time 24 h
  RIPK2: 41.32 and 46.91 and 38.86 and 44.83 and 39.94
  RIPK2 (time 0 = 100): 71.45 and 57.80 and 52.77 and 57.74
RIPK2; time 72 h
  RIPK2: 55.66 and 38.00 and 35.30 and 41.29 and 38.74
RIPK2; rat, 0.05 mg/kg/day QD SC, last time point
  RIPK2 degradation: > 70%
RIPK2; rat, 0.5 mg/kg/day QD SC, 24 h
  RIPK2 degradation: ~ 70%
RIPK2; rat, 0.5 mg/kg/day QD SC, last time point after third dose
  RIPK2 degradation: > 90%
RIPK2; rat, single 0.005 mg/kg SC
  effect on RIPK2 levels, in words: no significant effect
RIPK2; rat, single 0.05 mg/kg SC
  effect on RIPK2 protein levels, in words: did not have a statistically significant effect
RIPK2; rat, single 0.5 mg/kg SC, 6 h post-dose
  RIPK2 degradation: 53 ± 9%
RIPK2; rat, single 0.5 mg/kg SC, 48 h
  RIPK2 degradation: 78 ± 5%
RIPK2; time 6 h
  RIPK2 (time 0 = 100): 85.25 and 86.14 and 86.72 and 88.07
RIPK2; time 30 h
  RIPK2 (time 0 = 100): 42.20 and 43.44 and 40.14 and 48.21
RIPK2; time 48 h
  RIPK2 (time 0 = 100): 32.57 and 27.38 and 24.98 and 36.77
RIPK2; time 54 h
  RIPK2 (time 0 = 100): 24.47 and 24.71 and 23.45 and 32.20
[2]
  time drug levels were maintained above the LLQ after the first dose: 24 h
